# Measured values reported in PubChem BioAssay (NCI).
#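 Growth conditions: 96-well plates. Treatment: test compound, 48 hours, 5 concentrations. Analysis: linear interpolation between bracketing concentrations; unreached endpoints set to highest concentration. At the GI50, growth is halved. TGI: total growth inhibition.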
# Key:
# Assay in all cases: NCI-60 cell line screen, 48 h
# A498 renal = system: A498 renal
# A549 NSCLC = system: A549 NSCLC
# CAKI-1 renal = system: CAKI-1 renal
# CCRF-CEM leukemia = system: CCRF-CEM leukemia
# COLO 205 colon = system: COLO 205 colon
# DU-145 prostate = system: DU-145 prostate
# HCC-2998 colon = system: HCC-2998 colon
# HCT-116 colon = system: HCT-116 colon
# HCT-15 colon = system: HCT-15 colon
# HOP-62 NSCLC = system: HOP-62 NSCLC
# HOP-92 NSCLC = system: HOP-92 NSCLC
# IGROV1 ovarian = system: IGROV1 ovarian
# K-562 leukemia = system: K-562 leukemia
# KM12 colon = system: KM12 colon
# LOX IMVI melanoma = system: LOX IMVI melanoma
# M14 melanoma = system: M14 melanoma
# MCF7 breast = system: MCF7 breast
# MDA-MB-435 = system: MDA-MB-435
# MOLT-4 leukemia = system: MOLT-4 leukemia
# NCI-H226 lung = system: NCI-H226 lung
# NCI-H23 lung = system: NCI-H23 lung
# NCI-H460 lung = system: NCI-H460 lung
# NCI-H522 lung = system: NCI-H522 lung
# NCI/ADR-RES ovarian = system: NCI/ADR-RES ovarian
# OVCAR-4 ovarian = system: OVCAR-4 ovarian
# OVCAR-5 ovarian = system: OVCAR-5 ovarian
# OVCAR-8 ovarian = system: OVCAR-8 ovarian
# PC-3 prostate = system: PC-3 prostate
# RPMI-8226 leukemia = system: RPMI-8226 leukemia
# SF-268 CNS = system: SF-268 CNS
# SF-295 CNS = system: SF-295 CNS
# SK-MEL-2 melanoma = system: SK-MEL-2 melanoma
# SK-MEL-28 melanoma = system: SK-MEL-28 melanoma
# SK-MEL-5 melanoma = system: SK-MEL-5 melanoma
# SK-OV-3 ovarian = system: SK-OV-3 ovarian
# SN12C renal = system: SN12C renal
# SNB-19 CNS = system: SNB-19 CNS
# SR leukemia = system: SR leukemia
# T-47D breast = system: T-47D breast
# TK-10 renal = system: TK-10 renal
# U251 CNS = system: U251 CNS
# UACC-62 melanoma = system: UACC-62 melanoma
# UO-31 renal = system: UO-31 renal
# 786-0 renal = system: 786-0 renal
# ACHN renal = system: ACHN renal
# BT-549 breast = system: BT-549 breast
# EKVX NSCLC = system: EKVX NSCLC
# HL-60(TB) leukemia = system: HL-60(TB) leukemia
# HS 578T breast = system: HS 578T breast
# HT29 colon = system: HT29 colon
# MALME-3M melanoma = system: MALME-3M melanoma
# MDA-MB-231 breast = system: MDA-MB-231 breast
# OVCAR-3 ovarian = system: OVCAR-3 ovarian
# RXF 393 renal = system: RXF 393 renal
# SF-539 CNS = system: SF-539 CNS
# SNB-75 CNS = system: SNB-75 CNS
# SW-620 colon = system: SW-620 colon
# UACC-257 melanoma = system: UACC-257 melanoma
compound,measurement,setting,value
C=C(C)C1CC/C(C)=C/CC[C@]2(C)O[C@@H]2CCC2=CC1OC2=O (stereo partly drawn),GI50,A498 renal,23.2 µM
same,TGI,A498 renal,> 100 µM
same,GI50,A549 NSCLC,23.4 µM
same,TGI,A549 NSCLC,> 100 µM
same,GI50,CAKI-1 renal,19 µM
same,TGI,CAKI-1 renal,49.1 µM
same,GI50,CCRF-CEM leukemia,10.3 µM
same,TGI,CCRF-CEM leukemia,21.9 µM
same,GI50,COLO 205 colon,> 100 µM
same,TGI,COLO 205 colon,> 100 µM
same,GI50,DU-145 prostate,18.4 µM
same,TGI,DU-145 prostate,> 100 µM
same,GI50,HCC-2998 colon,80 µM
same,TGI,HCC-2998 colon,> 100 µM
same,GI50,HCT-116 colon,27.6 µM
same,TGI,HCT-116 colon,> 100 µM
same,GI50,HCT-15 colon,42.3 µM
same,TGI,HCT-15 colon,> 100 µM
same,GI50,HOP-62 NSCLC,> 100 µM
same,TGI,HOP-62 NSCLC,> 100 µM
same,GI50,HOP-92 NSCLC,14.4 µM
same,TGI,HOP-92 NSCLC,> 100 µM
same,GI50,IGROV1 ovarian,50.4 µM
same,TGI,IGROV1 ovarian,> 100 µM
same,GI50,K-562 leukemia,14.6 µM
same,TGI,K-562 leukemia,27.7 µM
same,GI50,KM12 colon,21.6 µM
same,TGI,KM12 colon,> 100 µM
same,GI50,LOX IMVI melanoma,15.1 µM
same,TGI,LOX IMVI melanoma,48.2 µM
same,GI50,M14 melanoma,37.2 µM
same,TGI,M14 melanoma,> 100 µM
same,GI50,MCF7 breast,> 100 µM
same,TGI,MCF7 breast,> 100 µM
same,GI50,MDA-MB-435,49.4 µM
same,TGI,MDA-MB-435,> 100 µM
same,GI50,MOLT-4 leukemia,12.1 µM
same,TGI,MOLT-4 leukemia,30.6 µM
same,GI50,NCI-H226 lung,> 100 µM
same,TGI,NCI-H226 lung,> 100 µM
same,GI50,NCI-H23 lung,36.8 µM
same,TGI,NCI-H23 lung,> 100 µM
same,GI50,NCI-H460 lung,> 100 µM
same,TGI,NCI-H460 lung,> 100 µM
same,GI50,NCI-H522 lung,> 100 µM
same,TGI,NCI-H522 lung,> 100 µM
same,GI50,NCI/ADR-RES ovarian,> 100 µM
same,TGI,NCI/ADR-RES ovarian,> 100 µM
same,GI50,OVCAR-4 ovarian,> 100 µM
same,TGI,OVCAR-4 ovarian,> 100 µM
same,GI50,OVCAR-5 ovarian,0.635 µM
same,TGI,OVCAR-5 ovarian,> 100 µM
same,GI50,OVCAR-8 ovarian,> 100 µM
same,TGI,OVCAR-8 ovarian,> 100 µM
same,GI50,PC-3 prostate,48.9 µM
same,TGI,PC-3 prostate,> 100 µM
same,GI50,RPMI-8226 leukemia,10.5 µM
same,TGI,RPMI-8226 leukemia,22.2 µM
same,GI50,SF-268 CNS,> 100 µM
same,TGI,SF-268 CNS,> 100 µM
same,GI50,SF-295 CNS,24 µM
same,TGI,SF-295 CNS,> 100 µM
same,GI50,SK-MEL-2 melanoma,57.5 µM
same,TGI,SK-MEL-2 melanoma,> 100 µM
same,GI50,SK-MEL-28 melanoma,> 100 µM
same,TGI,SK-MEL-28 melanoma,> 100 µM
same,GI50,SK-MEL-5 melanoma,78.8 µM
same,TGI,SK-MEL-5 melanoma,> 100 µM
same,GI50,SK-OV-3 ovarian,> 100 µM
same,TGI,SK-OV-3 ovarian,> 100 µM
same,GI50,SN12C renal,78.8 µM
same,TGI,SN12C renal,> 100 µM
same,GI50,SNB-19 CNS,> 100 µM
same,TGI,SNB-19 CNS,> 100 µM
same,GI50,SR leukemia,19 µM
same,TGI,SR leukemia,51.5 µM
same,GI50,T-47D breast,18.5 µM
same,TGI,T-47D breast,> 100 µM
same,GI50,TK-10 renal,15.7 µM
same,TGI,TK-10 renal,> 100 µM
same,GI50,U251 CNS,21.7 µM
same,TGI,U251 CNS,> 100 µM
same,GI50,UACC-62 melanoma,78.8 µM
same,TGI,UACC-62 melanoma,> 100 µM
same,GI50,UO-31 renal,12.7 µM
same,TGI,UO-31 renal,25.3 µM
CCOC(=O)c1c(C)n(Cc2ccc(Cl)cc2Cl)c2c1cc1oc(=O)c(=O)n3cnc2c13,GI50,786-0 renal,18.3 µM
same,TGI,786-0 renal,34.9 µM
same,GI50,A498 renal,20.6 µM
same,TGI,A498 renal,36.1 µM
same,GI50,A549 NSCLC,9.71 µM
same,TGI,A549 NSCLC,21.9 µM
same,GI50,ACHN renal,14.4 µM
same,TGI,ACHN renal,27.5 µM
same,GI50,BT-549 breast,21.6 µM
same,TGI,BT-549 breast,40.9 µM
same,GI50,CAKI-1 renal,17 µM
same,TGI,CAKI-1 renal,32.3 µM
same,GI50,CCRF-CEM leukemia,6.31 µM
same,TGI,CCRF-CEM leukemia,20.4 µM
same,GI50,COLO 205 colon,17 µM
same,TGI,COLO 205 colon,33.3 µM
same,GI50,DU-145 prostate,17.3 µM
same,TGI,DU-145 prostate,32.9 µM
same,GI50,EKVX NSCLC,23.2 µM
same,TGI,EKVX NSCLC,43.3 µM
same,GI50,HCT-116 colon,18.6 µM
same,TGI,HCT-116 colon,36 µM
same,GI50,HCT-15 colon,13.7 µM
same,TGI,HCT-15 colon,27.3 µM
same,GI50,HL-60(TB) leukemia,5.43 µM
same,TGI,HL-60(TB) leukemia,28.2 µM
same,GI50,HOP-62 NSCLC,15.5 µM
same,TGI,HOP-62 NSCLC,33.1 µM
same,GI50,HOP-92 NSCLC,13.9 µM
same,TGI,HOP-92 NSCLC,27.2 µM
same,GI50,HS 578T breast,24.1 µM
same,TGI,HS 578T breast,64.2 µM
same,GI50,HT29 colon,11 µM
same,TGI,HT29 colon,37.8 µM
same,GI50,IGROV1 ovarian,17.8 µM
same,TGI,IGROV1 ovarian,34 µM
same,GI50,K-562 leukemia,5.14 µM
same,TGI,K-562 leukemia,22.6 µM
same,GI50,KM12 colon,11.6 µM
same,TGI,KM12 colon,26 µM
same,GI50,LOX IMVI melanoma,14.2 µM
same,TGI,LOX IMVI melanoma,27.3 µM
same,GI50,M14 melanoma,22.3 µM
same,TGI,M14 melanoma,41.6 µM
same,GI50,MALME-3M melanoma,10.4 µM
same,TGI,MALME-3M melanoma,25.5 µM
same,GI50,MDA-MB-231 breast,15.7 µM
same,TGI,MDA-MB-231 breast,31.4 µM
same,GI50,MDA-MB-435,16.3 µM
same,TGI,MDA-MB-435,30.9 µM
same,GI50,MOLT-4 leukemia,3.99 µM
same,TGI,MOLT-4 leukemia,20.7 µM
same,GI50,NCI-H226 lung,19.7 µM
same,TGI,NCI-H226 lung,39.5 µM
same,GI50,NCI-H460 lung,7.78 µM
same,TGI,NCI-H460 lung,20 µM
same,GI50,NCI-H522 lung,16.4 µM
same,TGI,NCI-H522 lung,32.9 µM
same,GI50,OVCAR-3 ovarian,14.4 µM
same,TGI,OVCAR-3 ovarian,31.9 µM
same,GI50,OVCAR-4 ovarian,11.9 µM
same,TGI,OVCAR-4 ovarian,27.6 µM
same,GI50,OVCAR-8 ovarian,7.68 µM
same,TGI,OVCAR-8 ovarian,25.8 µM
same,GI50,RPMI-8226 leukemia,6.32 µM
same,TGI,RPMI-8226 leukemia,21.8 µM
same,GI50,RXF 393 renal,4.16 µM
same,TGI,RXF 393 renal,15.3 µM
same,GI50,SF-268 CNS,16.3 µM
same,TGI,SF-268 CNS,33.3 µM
same,GI50,SF-295 CNS,21.1 µM
same,TGI,SF-295 CNS,43.1 µM
same,GI50,SF-539 CNS,20.6 µM
same,TGI,SF-539 CNS,38.3 µM
same,GI50,SK-MEL-2 melanoma,22.5 µM
same,TGI,SK-MEL-2 melanoma,56.5 µM
same,GI50,SK-MEL-28 melanoma,14.2 µM
same,TGI,SK-MEL-28 melanoma,31.7 µM
same,GI50,SK-MEL-5 melanoma,18 µM
same,TGI,SK-MEL-5 melanoma,34.3 µM
same,GI50,SK-OV-3 ovarian,23.5 µM
same,TGI,SK-OV-3 ovarian,38.3 µM
same,GI50,SN12C renal,19 µM
same,TGI,SN12C renal,35.2 µM
same,GI50,SNB-19 CNS,17.4 µM
same,TGI,SNB-19 CNS,32.1 µM
same,GI50,SNB-75 CNS,3.39 µM
same,TGI,SNB-75 CNS,15.3 µM
same,GI50,SR leukemia,1.09 µM
same,TGI,SR leukemia,5.85 µM
same,GI50,SW-620 colon,22.1 µM
same,TGI,SW-620 colon,40.5 µM
same,GI50,T-47D breast,12.8 µM
same,TGI,T-47D breast,27.7 µM
same,GI50,TK-10 renal,17.4 µM
same,TGI,TK-10 renal,33 µM
same,GI50,U251 CNS,14.7 µM
same,TGI,U251 CNS,27.9 µM
same,GI50,UACC-257 melanoma,9.51 µM
same,TGI,UACC-257 melanoma,21.7 µM
same,GI50,UO-31 renal,16.1 µM
same,TGI,UO-31 renal,31.8 µM
